Reference: PubChem BioAssay (NCI)
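Exposure lasted 48 hours, with cells grown in 96-well plates and compounds tested at five concentrations. TGI marks complete inhibition of growth.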

System: NCI/ADR-RES ovarian
Assay: NCI tumour cell line growth inhibition, 48 h

| Structure (SMILES) | TGI [µM] |
| --- | --- |
| O=c1[nH]nc(-c2ccccc2)n1-n1cnnc1 | > 100 |
| C[C@H](CCC(=O)NCC(=O)O)[C@H]1CC[C@H]2[C@@H]3[C@H](O)C[C@@H]4C[C@H](O)CC[C@]4(C)[C@H]3CC[C@]12C | > 100 |
| Cc1ccc(NC(=O)CC(=O)n2nc(C)c(N=Nc3cccc(C)c3)c2C)cc1 | > 100 |
| N#C/C(=C\c1ccc2[nH]ccc2c1)C(=O)c1ccc(O)c(O)c1 | > 100 |
| COC1CC(OC2C(C)OC(OC3C(C)OC(OC4C(C)OC(O[C@H]5CC[C@@]6(C)C(=CC[C@]7(O)[C@@H]6C[C@@H](O)[C@@]6(C)[C@]7(O)CC[C@@]6(O)C(C)=O)C5)CC4OC)CC3OC)CC2OC)OC(C)C1O (stereo not given in full) | > 12.5 |
| O=[N+]([O-])/C(C(Cl)=C(Cl)Cl)=C(/Nc1ccccc1)Sc1ccccc1 | 78.9 |
| Cc1ccc2c(c1C)C(=O)/C(=C/c1cccc(C)c1C(=O)O)C2 | > 100 |
| CC/C(N)=N\NC(=O)OC(C)(C)C | > 100 |
| CN(C)CCCNC(=O)c1cn2c(ccc3sc4ccccc4c(=O)c32)n1 | 8.37 |
| O=P(O)(O)CN1CCNCCN(CP(=O)(O)O)CC1 | > 44.9 |
| CC(C)NC(=O)OCc1c(COC(=O)NC(C)C)c(-c2cc[n+](COC(=O)C3CCCCC3)cc2)n2c1CCC2 | > 100 |
| O=S(=O)(O)c1cc(S(=O)(=O)O)c2c(N=Nc3ccc(N=Nc4ccccc4)cc3)c(O)ccc2c1 | > 100 |
| CC(C)(C)[Si](C)(C)OC[C@H](/C=C\CCCC(=O)O)NC1(c2ccccc2)c2ccccc2-c2ccccc21 | 61 |
| CN(C)CCNC(=O)c1c(O)ccc2c1c1c(n2CCc2ccccc2)C(=O)c2ccccc2C1=O | 29.4 |
| Cc1csc(-n2c(C)nc3cc(Cl)ccc3c2=O)n1 | > 100 |

System: OVCAR-4 ovarian
Assay: NCI tumour cell line growth inhibition, 48 h

| Structure (SMILES) | TGI [µM] |
| --- | --- |
| O=c1[nH]nc(-c2ccccc2)n1-n1cnnc1 | > 100 |
| C[C@H](CCC(=O)NCC(=O)O)[C@H]1CC[C@H]2[C@@H]3[C@H](O)C[C@@H]4C[C@H](O)CC[C@]4(C)[C@H]3CC[C@]12C | > 100 |
| Cc1ccc(NC(=O)CC(=O)n2nc(C)c(N=Nc3cccc(C)c3)c2C)cc1 | > 100 |
| N#C/C(=C\c1ccc2[nH]ccc2c1)C(=O)c1ccc(O)c(O)c1 | > 100 |
| COC1CC(OC2C(C)OC(OC3C(C)OC(OC4C(C)OC(O[C@H]5CC[C@@]6(C)C(=CC[C@]7(O)[C@@H]6C[C@@H](O)[C@@]6(C)[C@]7(O)CC[C@@]6(O)C(C)=O)C5)CC4OC)CC3OC)CC2OC)OC(C)C1O (stereo not given in full) | > 12.5 |
| O=[N+]([O-])/C(C(Cl)=C(Cl)Cl)=C(/Nc1ccccc1)Sc1ccccc1 | 37.3 |
| Cc1ccc2c(c1C)C(=O)/C(=C/c1cccc(C)c1C(=O)O)C2 | > 100 |
| CC/C(N)=N\NC(=O)OC(C)(C)C | > 100 |
| CN(C)CCCNC(=O)c1cn2c(ccc3sc4ccccc4c(=O)c32)n1 | 28.1 |
| O=P(O)(O)CN1CCNCCN(CP(=O)(O)O)CC1 | > 100 |
| CC(C)NC(=O)OCc1c(COC(=O)NC(C)C)c(-c2cc[n+](COC(=O)C3CCCCC3)cc2)n2c1CCC2 | > 100 |
| O=S(=O)(O)c1cc(S(=O)(=O)O)c2c(N=Nc3ccc(N=Nc4ccccc4)cc3)c(O)ccc2c1 | > 100 |
| CC(C)(C)[Si](C)(C)OC[C@H](/C=C\CCCC(=O)O)NC1(c2ccccc2)c2ccccc2-c2ccccc21 | > 100 |
| CN(C)CCNC(=O)c1c(O)ccc2c1c1c(n2CCc2ccccc2)C(=O)c2ccccc2C1=O | 24.6 |
| Cc1csc(-n2c(C)nc3cc(Cl)ccc3c2=O)n1 | > 100 |

System: SF-268 CNS
Assay: NCI tumour cell line growth inhibition, 48 h

| Structure (SMILES) | TGI [µM] |
| --- | --- |
| O=c1[nH]nc(-c2ccccc2)n1-n1cnnc1 | > 100 |
| C[C@H](CCC(=O)NCC(=O)O)[C@H]1CC[C@H]2[C@@H]3[C@H](O)C[C@@H]4C[C@H](O)CC[C@]4(C)[C@H]3CC[C@]12C | > 100 |
| Cc1ccc(NC(=O)CC(=O)n2nc(C)c(N=Nc3cccc(C)c3)c2C)cc1 | > 100 |
| N#C/C(=C\c1ccc2[nH]ccc2c1)C(=O)c1ccc(O)c(O)c1 | > 100 |
| COC1CC(OC2C(C)OC(OC3C(C)OC(OC4C(C)OC(O[C@H]5CC[C@@]6(C)C(=CC[C@]7(O)[C@@H]6C[C@@H](O)[C@@]6(C)[C@]7(O)CC[C@@]6(O)C(C)=O)C5)CC4OC)CC3OC)CC2OC)OC(C)C1O (stereo not given in full) | > 12.5 |
| O=[N+]([O-])/C(C(Cl)=C(Cl)Cl)=C(/Nc1ccccc1)Sc1ccccc1 | 28.2 |
| Cc1ccc2c(c1C)C(=O)/C(=C/c1cccc(C)c1C(=O)O)C2 | > 100 |
| CC/C(N)=N\NC(=O)OC(C)(C)C | > 100 |
| CN(C)CCCNC(=O)c1cn2c(ccc3sc4ccccc4c(=O)c32)n1 | 9.96 |
| O=P(O)(O)CN1CCNCCN(CP(=O)(O)O)CC1 | > 100 |
| CC(C)NC(=O)OCc1c(COC(=O)NC(C)C)c(-c2cc[n+](COC(=O)C3CCCCC3)cc2)n2c1CCC2 | > 100 |
| O=S(=O)(O)c1cc(S(=O)(=O)O)c2c(N=Nc3ccc(N=Nc4ccccc4)cc3)c(O)ccc2c1 | > 100 |
| CC(C)(C)[Si](C)(C)OC[C@H](/C=C\CCCC(=O)O)NC1(c2ccccc2)c2ccccc2-c2ccccc21 | 35.4 |
| CN(C)CCNC(=O)c1c(O)ccc2c1c1c(n2CCc2ccccc2)C(=O)c2ccccc2C1=O | 15 |
| Cc1csc(-n2c(C)nc3cc(Cl)ccc3c2=O)n1 | > 100 |

System: SF-539 CNS
Assay: NCI tumour cell line growth inhibition, 48 h

| Structure (SMILES) | TGI [µM] |
| --- | --- |
| O=c1[nH]nc(-c2ccccc2)n1-n1cnnc1 | > 100 |
| C[C@H](CCC(=O)NCC(=O)O)[C@H]1CC[C@H]2[C@@H]3[C@H](O)C[C@@H]4C[C@H](O)CC[C@]4(C)[C@H]3CC[C@]12C | > 100 |
| Cc1ccc(NC(=O)CC(=O)n2nc(C)c(N=Nc3cccc(C)c3)c2C)cc1 | > 100 |
| N#C/C(=C\c1ccc2[nH]ccc2c1)C(=O)c1ccc(O)c(O)c1 | > 100 |
| COC1CC(OC2C(C)OC(OC3C(C)OC(OC4C(C)OC(O[C@H]5CC[C@@]6(C)C(=CC[C@]7(O)[C@@H]6C[C@@H](O)[C@@]6(C)[C@]7(O)CC[C@@]6(O)C(C)=O)C5)CC4OC)CC3OC)CC2OC)OC(C)C1O (stereo not given in full) | > 12.5 |
| O=[N+]([O-])/C(C(Cl)=C(Cl)Cl)=C(/Nc1ccccc1)Sc1ccccc1 | 52.3 |
| Cc1ccc2c(c1C)C(=O)/C(=C/c1cccc(C)c1C(=O)O)C2 | > 100 |
| CC/C(N)=N\NC(=O)OC(C)(C)C | > 100 |
| CN(C)CCCNC(=O)c1cn2c(ccc3sc4ccccc4c(=O)c32)n1 | 33.1 |
| O=P(O)(O)CN1CCNCCN(CP(=O)(O)O)CC1 | > 100 |
| CC(C)NC(=O)OCc1c(COC(=O)NC(C)C)c(-c2cc[n+](COC(=O)C3CCCCC3)cc2)n2c1CCC2 | > 100 |
| O=S(=O)(O)c1cc(S(=O)(=O)O)c2c(N=Nc3ccc(N=Nc4ccccc4)cc3)c(O)ccc2c1 | > 100 |
| CC(C)(C)[Si](C)(C)OC[C@H](/C=C\CCCC(=O)O)NC1(c2ccccc2)c2ccccc2-c2ccccc21 | 31.3 |
| CN(C)CCNC(=O)c1c(O)ccc2c1c1c(n2CCc2ccccc2)C(=O)c2ccccc2C1=O | 11.1 |
| Cc1csc(-n2c(C)nc3cc(Cl)ccc3c2=O)n1 | > 100 |
